From patent EP4778922A1, “BICYCLIC COMPOUND, AND PREPARATION METHOD THEREFOR AND PHARMACEUTICAL USE THEREOF” (Shanghai Jeyou Pharmaceutical Co., Ltd., priority 2023, dated 2025) come the findings set out here.

Data set [1] has as its system LNCaP cells. Briefly: Cell proliferation inhibition assay in LNCaP cells (0.2 nM DHT, CellTiter-Glo, 7 days). It counts as cell-based, human. The note with it: Homo sapiens, 168 h. As for the experimental part:
• 1. The human prostate cancer cell lines 22RV1 and LNCaP were purchased from ATCC. […] The cell concentration was adjusted to an appropriate concentration (determined based on the results of cell density optimization experiments), and the cells were seeded into a 96-well plate. A 100 µL cell suspension was added, resulting in 3000 cells per well. […] On the second day, for 22Rv1 cells, test compounds at different concentrations were added, and the cells were incubated at 37°C in a 5% CO2 incubator for 7 days; for LNCaP cells, test compounds at different concentrations were added first, and after 1 hour of treatment, 0.2 nM DHT was added. The cells were then incubated at 37°C in a 5% CO2 incubator for 7 days. • 4. After the incubation period, a volume of CellTiter-Glo detection reagent equal to the volume of the culture medium was added to each well. The plate was shaken and mixed thoroughly for 5 minutes, then incubated at room temperature for 10 minutes. Readings were taken using a PerkinElmer EnVision microplate reader. • 5.
The IC50 curve was fitted and the IC50 value was calculated using the software GraphPad Prism 8 with the calculation formula XY-analysis/Nonlinear regression (curve fit)/Dose response-Inhibition/log (inhibitor) vs. response-Variable slope (four parameters).

The test system of data set [2] is 22RV1 cells. Briefly: Cell proliferation inhibition assay in 22RV1 cells (CellTiter-Glo, 7 days). The format is cell-based, human. The conditions noted are these: Homo sapiens, 22Rv1, 168 h. The essentials: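 22RV1 cells received compound alone; LNCaP cells were stimulated with 0.2 nM DHT added 1 h after compound. Seeding was 3000 cells/well.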
Data set [3] in a line: Mouse pharmacokinetic test. It counts as in vivo, ICR mice. The conditions noted are these: plasma, po, 30 mg/kg, PO-30mpk; for Tmax: read-out: Tmax. On the procedure: Formulation preparation: The dosing solutions were prepared on the day of administration.
Six healthy male naive ICR mice weighing 25-30 g were selected and divided into two groups (intravenous and oral groups), with three mice in each group, and administered a single dose. […] Feeding was resumed 4 h after administration. Timing was initiated following intravenous and oral administration. […] The collected whole blood was briefly vortexed twice for mixing, placed on wet ice, and centrifuged at 4°C and 8000 rpm for 5 min within 1 h. The supernatant plasma was collected and stored at -80°C until processing and analysis. Table 3: Pharmacokinetics in mice

SMILES strings stand for the structures.

In data set [1], `CC(C)(c1cc(Cl)c(OCCCl)c(C#N)c1)c1ccc(-c2ccc(OCc3ccnc(N4CC(S(C)(=O)=O)C4)n3)nc2)cn1` [Compound 478] displayed a half-maximal inhibitory concentration (IC50) of 780 nM.

Consider `CC(C)(c1cc(Cl)c(OCCCl)c(C#N)c1)c1ccc(-c2ccc(OCc3ccnc(P(C)(C)=O)n3)cc2)cn1` [Compound 474], for which half-maximal inhibition in data set [1] (IC50) was put at 680 nM.

For the compound `CC(C)(c1ccc(N2CCCc3cc(OCc4ccnc(P(C)(C)=O)n4)ccc32)cc1)c1cc(Cl)c(OCCCl)c(C#N)c1` [Compound 457], in data set [1], 970 nM corresponded to half-maximal inhibition (IC50).

In data set [1], `CC(C)(c1ccc(-c2ccc(OCc3cnc(-c4cnc(P(C)(C)=O)nc4)cn3)cc2)cc1)c1cc(Cl)c(OCCCl)c(C#N)c1` [Compound 408] gave a half-maximal inhibitory concentration (IC50) of 180 nM.

`CC(C)(c1ccc(-c2cnc(COc3ccnc(N4CC(S(C)(=O)=O)C4)n3)nc2)cc1)c1cc(Cl)c(OCCCl)c(C#N)c1` [Compound 383] gave a 50% inhibitory concentration (IC50) in data set [1] of 580 nM.

`CC(C)(c1ccc(-c2ncc(OCc3ccnc(N4CC(S(C)(=N)=O)C4)n3)cn2)cc1)c1cc(Cl)c(OCCCl)c(C#N)c1` (single isomer, unassigned) [Compound 366A] displayed an IC50 in data set [1] of 970 nM.

As for `CC(C)(c1ccc(-c2ccc(COc3ccnc(P(C)(C)=O)n3)nc2)cc1)c1cc(Cl)c(OCCCl)c(C#N)c1` [Compound 427], the IC50 in data set [1] came to 830 nM.

With `CC(=O)c1nccc(COc2cnc(-c3ccc(C(C)(C)c4cc(Cl)c(OCCCl)c(C#N)c4)cc3)cn2)n1` [Compound 441], it took 950 nM to reach half-maximal inhibition in data set [1] (IC50).

`CC(C)(c1ccc(-c2ccc(OCc3ccnc(N4CC5(CCS5(=N)=O)C4)n3)cn2)cc1)c1cc(Cl)c(OCCCl)c(C#N)c1` (stereo not shown) [Compound 404] gave an IC50 in data set [1] of 490 nM.

As for `CC(C)(c1ccc(-c2ccc(OCC34CC(c5cnc(P(C)(C)=O)nc5)(C3)C4)cn2)cc1)c1cc(Cl)c(OCCCl)c(C#N)c1` [Compound 367], the IC50 in data set [1] was found to be 910 nM.

On to `CC(C)(c1ccc(-c2ccc(OCc3ccnc(N4CC(S(C)(=O)=NC#N)C4)n3)cn2)cc1)c1cc(Cl)c(OCCCl)c(C#N)c1` (stereo not shown) [Compound 413], for which, in data set [1], the IC50 was determined as 800 nM.

In the case of `CC(C)(c1ccc(-c2ccc(OCc3ccnc(N4CC5(C4)CS(=N)(=O)C5)n3)nc2)cc1)c1cc(Cl)c(OCCCl)c(C#N)c1` [Compound 400], half-maximal inhibition in data set [1] (IC50) was put at 690 nM.

For `CC(C)(c1ccc(-c2ccc(OCc3ncc(P(C)(C)=O)s3)cc2)cc1)c1cc(Cl)c(OCCCl)c(C#N)c1` [Compound 221], in data set [2], the half-maximal inhibitory concentration (IC50) amounted to 1040 nM. Further, in data set [3], the AUC(0-inf) was determined as 464 µg·h/mL, the Cmax turned out to be 19300 ng/mL, the half-life was 10.4 h and the time of peak concentration (Tmax) was found to be 5 h.

In turn, `CC(C)(c1ccc(-c2ccc(OCc3ccnc(P(C)(C)=O)n3)cc2)nc1)c1cc(Cl)c(OCCCl)c(C#N)c1` [Compound 459] registered an IC50 in data set [1] (LNCaP) of 990 nM.

For the compound `CC(C)(c1cc(Cl)c(OCCCl)c(C#N)c1)c1ccc(-c2ccc(OCc3ccnc(N4CC(S(C)(=N)=O)C4)n3)nc2)cn1` (stereo not shown) [Compound 479], in data set [1], the IC50 came to 700 nM.

`CC(C)(c1ccc(-c2ccc3c(c2)C(=O)N(Cc2ccnc(P(C)(C)=O)n2)C3)cc1)c1cc(Cl)c(OCCCl)c(C#N)c1` [Compound 439] returned an IC50 in data set [1] of 470 nM.

As for `CC(C)(c1ccc(-c2ccc(OCc3ccnc(N4CC(NS(C)(=O)=O)C4)n3)cc2)cc1)c1cc(Cl)c(OCCCl)c(C#N)c1` [Compound 161], in data set [2], 450 nM corresponded to half-maximal inhibition (IC50). Further, in data set [3], the AUC(0-inf) worked out at 376 µg·h/mL, the Cmax was determined as 11800 ng/mL, the half-life is 22.7 h and the Tmax turned out to be 4 h.

In data set [1], `CC(C)(c1ccc(-c2ccc(Oc3ncc(-c4cnc(CP(C)(C)=O)nc4)cn3)cc2)cc1)c1cc(Cl)c(OCCCl)c(C#N)c1` [Compound 399] came in with an IC50 of 970 nM.

`CC(C)(c1cc(Cl)c(OCCCl)c(C#N)c1)c1ccc(-c2ccc(OCc3ccnc(N4CC(S(C)(=N)=O)C4)n3)cn2)cn1` (stereo not shown) [Compound 475] returned a half-maximal inhibitory concentration (IC50) in data set [1] of 700 nM.

`CC(C)(c1ccc(-c2ccc(OCc3cccc(S(C)(=N)=O)n3)cc2)cc1)c1cc(Cl)c(OCCCl)c(C#N)c1` (stereo not shown) [Compound 188]: the midpoint of inhibition in data set [2], the IC50, lay at 1030 nM. Moreover, in data set [3], the area under the curve AUC(0-inf) was determined as 211 µg·h/mL, the highest level (Cmax) was 17300 ng/mL, the half-life is 7.5 h and the Tmax is 3 h.

`CC(C)(c1ccc(-c2ccc(OCc3ccnc(N=S(C)(C)=O)n3)cc2)cc1)c1cc(Cl)c(OCCCl)c(C#N)c1` [Compound 44]: half-maximal inhibition in data set [2] (IC50) required 940 nM. In data set [3], the area under the curve AUC(0-inf) was determined as 219 µg·h/mL, the Cmax was 11700 ng/mL, the half-life is 9.35 h and the Tmax came out at 4.67 h.

Compound `CC(C)(c1ccc(-c2cnc(OCc3ccnc(N4CC(S(C)(=N)=O)C4)n3)nc2)cc1)c1cc(Cl)c(OCCCl)c(C#N)c1` (stereo not shown) [Compound 372] had an IC50 in data set [1] of 660 nM.

`C[C@H](Cl)COc1c(Cl)cc(C(C)(C)c2ccc(-c3ccc(OCc4ccnc(P(C)(C)=O)n4)cc3)cc2)cc1C#N` [Compound 283]: the IC50 in data set [2] turned out to be 840 nM. Further, in data set [3], the total exposure AUC(0-inf) worked out at 277 µg·h/mL, the peak concentration (Cmax) came out at 18700 ng/mL, the half-life was 9.3 h and the Tmax is 4 h.

Take `CC(C)(c1ccc(-c2ncc(OCc3ccc(-c4ccc(P(C)(C)=O)nn4)cc3)cn2)cc1)c1cc(Cl)c(OCCCl)c(C#N)c1` [Compound 455]: 160 nM corresponded to half-maximal inhibition in data set [1] (IC50).

Compound `CC(C)(c1ccc(-c2ccc(OCC3CC4(C3)CS(=N)(=O)C4)cc2)cc1)c1cc(Cl)c(OCCCl)c(C#N)c1` (stereo not shown) [Compound 308] showed an IC50 in data set [2] of 750 nM. Also, in data set [3], the AUC(0-inf) was determined as 186 µg·h/mL, the concentration peaked (Cmax) at 14300 ng/mL, the half-life was 4.45 h and the Tmax was 3 h.

Compound `CC(C)(c1ccc(-c2ccc(OCc3ccnc(N4CC(S(C)(=O)=O)C4)n3)cc2)nc1)c1cc(Cl)c(OCCCl)c(C#N)c1` [Compound 460] had an IC50 in data set [1] of 450 nM.

As for `CC(C)(c1ccc(-c2ncc(OCc3ccc(-c4cnc(P(C)(C)=O)nc4)cc3)cn2)cc1)c1cc(Cl)c(OCCCl)c(C#N)c1` [Compound 272], the IC50 in data set [2] came out at 650 nM. Also, in data set [3], the AUC(0-inf) was 755 µg·h/mL, the maximum concentration (Cmax) amounted to 53200 ng/mL, the half-life is 5.8 h and the Tmax came out at 4 h.

`CC(C)(c1ccc(-c2ncc(OCc3ccc(-c4cnc(P(C)(C)=O)nc4)nc3)cn2)cc1)c1cc(Cl)c(OCCCl)c(C#N)c1` [Compound 426] showed an IC50 in data set [1] of 940 nM.

On to `CC(C)(c1ccc(-c2ccc(OCc3ccnc(N4CC(S(C)(=N)=O)C4)n3)cn2)cc1)c1cc(Cl)c(OCCCl)c(C#N)c1` (racemic) [Compound 242], for which, in data set [2], 490 nM corresponded to half-maximal inhibition (IC50). Besides, in data set [3], the AUC(0-inf) is 607 µg·h/mL, the concentration peaked (Cmax) at 78000 ng/mL, the half-life was 4.4 h and the time to peak (Tmax) worked out at 4 h.

`CC(C)(c1ccc(-c2ccc(OCc3ccnc(N4CC[C@H](S(C)(=O)=O)C4)n3)cc2)cc1)c1cc(Cl)c(OCCCl)c(C#N)c1` [Compound 202]: in data set [2], inhibition was half-maximal at 660 nM (IC50). Besides, in data set [3], the AUC(0-inf) came to 202 µg·h/mL, the Cmax was determined as 8880 ng/mL, the half-life is 18.5 h and the time to peak (Tmax) was determined as 4 h.

The compound `CC(C)(c1ccc(-c2ccc(OCC3CN(c4ccnc(P(C)(C)=O)n4)C3)cc2)cc1)c1cc(Cl)c(OCCCl)c(C#N)c1` [Compound 70] yielded a 50% inhibitory concentration (IC50) in data set [2] of 500 nM. Further, in data set [3], the AUC(0-inf) was 187 µg·h/mL, the Cmax turned out to be 14700 ng/mL, the half-life is 5.13 h and the time of peak concentration (Tmax) came to 4 h.

On to `CC(C)(c1ccc(-c2ccc(OCc3ccnc(C4CN(S(C)(=O)=O)C4)n3)cc2)cc1)c1cc(Cl)c(OCCCl)c(C#N)c1` [Compound 145], for which the half-inhibitory concentration (IC50) in data set [2] turned out to be 600 nM. Moreover, in data set [3], the total exposure AUC(0-inf) came to 273 µg·h/mL, the peak concentration (Cmax) turned out to be 15800 ng/mL, the half-life was 15.3 h and the time of peak concentration (Tmax) turned out to be 4 h.

For `CC(C)(c1ccc(-c2ccc(OCc3ccnc(N4CC(S(C)(=N)=O)C4)n3)cc2)nc1)c1cc(Cl)c(OCCCl)c(C#N)c1` (stereo not shown) [Compound 461], half-maximal inhibition in data set [1] (IC50) required 580 nM.

Turning to `CC(C)(c1ccc(-c2cnc(OCc3ccc(-c4cnc(P(C)(C)=O)nc4)nc3)nc2)cc1)c1cc(Cl)c(OCCCl)c(C#N)c1` [Compound 374], half-maximal inhibition in data set [1] (IC50) was put at 920 nM.

Regarding `CC(C)(c1ccc(-c2ccc(OCc3ccnc(N4CC(S(C)(=O)=O)C4)n3)nn2)cc1)c1cc(Cl)c(OCCCl)c(C#N)c1` [Compound 423], inhibition in data set [1] was half-maximal at 460 nM (IC50).

With `CC(C)(c1ccc(-c2cccc3c(OCc4ccnc(P(C)(C)=O)n4)nccc23)cc1)c1cc(Cl)c(OCCCl)c(C#N)c1` [Compound 345], 230 nM corresponded to half-maximal inhibition in data set [1] (IC50).

Consider `CC(C)(c1ccc(-c2ccc(OCc3ccnc(N4CC(CS(C)(=O)=O)C4)n3)cc2)cc1)c1cc(Cl)c(OCCCl)c(C#N)c1` [Compound 175], for which the IC50 in data set [2] stood at 490 nM. For the same compound, in data set [3], the AUC(0-inf) came out at 320 µg·h/mL, the Cmax was determined as 9200 ng/mL, the half-life was 21.1 h and the time of peak concentration (Tmax) is 4 h.
